In US20120028897A1, “METHODS AND COMPOSITIONS FOR THE TREATMENT OF FLUID RETENTION DISORDERS” (priority 2008, published 2012):

Tested on: anesthetized rats
Assay: Glomerular filtration rate (FITC-inulin clearance) during and after iv peptide infusion
Type: in vivo, rat
Procedure: All rats received a continuous intravenous infusion (10 μl/min/100 g BW) of isotonic saline containing FITC-labeled inulin for measurement of inulin clearance. Uncongugated FITC label and small inulin polymers were removed from the inulin solution by overnight dialysis against isotonic saline (SpectraPor 6 dialysis membrane, 1 kDa cutoff-limit, Spectrum Laboratories, Rancho Domingo, Calif.). Undissolved particulates were removed from the solution by filtration through a […] filter before each experiment (Steriflip, Millipore Inc. Billerica, Mass.). At least one hr was allowed for equilibration before the start of urine collections, at which point plasma inulin concentration had stabilized at an average value of 30±3 μg/ml.
Arterial blood pressure was measured with a pressure transducer connected to a cardiovascular analyzer (Model 50110, Stoelting Instruments Wood Dale, Ill.). Left renal blood flow was measured in some rats with a flow probe positioned on the left renal artery and connected to a blood flow monitor (model 1 PRB probe and model T420 monitor, Transonic Systems Inc. Ithaca N.Y.). Arterial pressure, heart rate, and renal blood flow were digitized with an A/D converter (Keithley instruments, Cleveland, Ohio Model KUSB 3100) for display and storage on a Windows-based personal computer using open layers data acquisition software (Dtx_Ez, Data Translation Inc, Marlboro, Mass.). Sodium and potassium concentrations in plasma and urine were measured by flame photometry (Model 943, Instrumentation Laboratory Co., Lexington Mass.). Glomerular filtration rate (GFR) was measured as the renal clearance rate of FITC-labeled inulin
After post-surgical equilibration (−60 min) and three 20 min control clearance periods, huUgnA or B was infused into the jugular vein at 10 μl/min over a 60 min period, followed by a return to isotonic saline for the remainder of the experiment. The infused doses of huUgnA were 12, 25, 50, 100, or 200 nmol/kg BW in a total of 38 rats; huUgnB doses were 9, 18, 35, 70, and 140 nmol/kg BW in 35 rats. A UgnA mimetic, E. coli STh (ST-core), was infused into a third group of 32 rats at doses of 17, 32, 66, 133, and 266 nmol/kg. Renal excretory responses to these infusions were slow to develop and long lasting, so clearance periods were continued for 2-3 hr after the termination of the peptide infusion. This protracted time course limited protocols to one dose of one peptide in each rat. A control group of 10 rats received isotonic saline at 10 μl/min in place of the peptide infusion, but was otherwise treated in the same way as the experimental groups.
This assay was based on the method described by Lorenz and Gruenstein. Urine samples were diluted with hepes-buffered saline (3, 5, 10, or 20 fold, based on urine flow) to neutralize the pH and bring the intensity of FITC emissions into detector range. Small volumes (3-5 μl) of diluted urine and undiluted plasma samples were drawn into constant bore capillary tubes (10 μl Microcap tubes, Drummond Scientific Company, Broomall Pa.) and sealed at each end with water-saturated mineral oil. FITC emission intensity was measured by imaging each sample at 10× magnification with an epifluorescence microscope (Axiovert S100TV, Carl Zeiss Inc. Thornwood, N.Y.) fitted with a CCD camera (Orca II, Hamamatsu Inc. Bridgewater, N.J.) controlled by Metamorph imaging software (Molecular Devices, Sunnyvale, Calif.). Fluorescence intensities were measured as mean pixel intensity obtained from a consistent central region of each sample during a 25 or 500 msec exposure for urine and plasma, respectively. Background intensities were measured in the same way using bladder urine and tail vein plasma collected from the same rat before the beginning of inulin infusion. Inulin concentrations in plasma and urine samples were calculated from a standard curve prepared from the infusion solution used in each experiment. […]

Q: For `CC(C)C[C@H](NC(=O)[C@@H]1CSSC[C@@H]2NC(=O)[C@H](CC(C)C)NC(=O)[C@H](CCC(=O)O)NC(=O)[C@@H](NC(=O)[C@H](CC(=O)O)NC(=O)[C@H](CC(=O)O)NC(=O)[C@@H](N)CC(N)=O)CSSC[C@H](NC(=O)[C@H](C)NC(=O)[C@H](C(C)C)NC(=O)[C@H](CC(N)=O)NC(=O)[C@H](C(C)C)NC2=O)C(=O)N[C@@H]([C@@H](C)O)C(=O)NCC(=O)N1)C(=O)O` (single isomer, unassigned) [huUgnB, Asn Asp Asp Cys Glu Leu Cys Val Asn Val Ala Cys Thr Gly Cys Leu], which “GFR (glomerular filtration rate)” value (huUgnB 9 nmol, Infusion) is on record?
A: Its value is 918 ± 66 μl/min/g KW.

Q: And the “GFR (glomerular filtration rate)” value (huUgnB 9 nmol, Post-infuse)?
A: Its value is 947 ± 60 μl/min/g KW.

Q: What about the “GFR (glomerular filtration rate)” value (huUgnB 9 nmol, Pre-infuse) of the same molecule?
A: Its value is 921 ± 57 μl/min/g KW.

Q: And the “GFR (glomerular filtration rate)” value (huUgnB 18 nmol, Infusion)?
A: The value was 936 ± 76 μl/min/g KW.

Q: And the “GFR (glomerular filtration rate)” value (huUgnB 18 nmol, Post-infuse)?
A: The value was 877 ± 80 μl/min/g KW.

Q: What about the “GFR (glomerular filtration rate)” value (huUgnB 18 nmol, Pre-infuse) of the same molecule?
A: Its value is 890 ± 55 μl/min/g KW.

Q: And the “GFR (glomerular filtration rate)” value (huUgnB 35 nmol, Infusion)?
A: The value was 830 ± 48 μl/min/g KW.

Q: And the “GFR (glomerular filtration rate)” value (huUgnB 35 nmol, Post-infuse)?
A: Its value is 870 ± 53 μl/min/g KW.

Q: And the “GFR (glomerular filtration rate)” value (huUgnB 35 nmol, Pre-infuse)?
A: Its value is 866 ± 64 μl/min/g KW.

Q: What about the “GFR (glomerular filtration rate)” value (huUgnB 70 nmol, Infusion) of the same molecule?
A: The value was 867 ± 86 μl/min/g KW.

Q: And the “GFR (glomerular filtration rate)” value (huUgnB 70 nmol, Post-infuse)?
A: The value was 876 ± 26 μl/min/g KW.

Q: And the “GFR (glomerular filtration rate)” value (huUgnB 70 nmol, Pre-infuse)?
A: The value was 883 ± 95 μl/min/g KW.

Q: And the “GFR (glomerular filtration rate)” value (huUgnB 140 nmol, Infusion)?
A: The value was 788 ± 67 μl/min/g KW.

Q: What about the “GFR (glomerular filtration rate)” value (huUgnB 140 nmol, Post-infuse) of the same molecule?
A: Its value is 924 ± 46 μl/min/g KW.

Q: And the “GFR (glomerular filtration rate)” value (huUgnB 140 nmol, Pre-infuse)?
A: Its value is 858 ± 86 μl/min/g KW.

Q: Which results are given for `CC(C)C[C@H](NC(=O)[C@@H]1CSSC[C@@H]2NC(=O)[C@H](CC(C)C)NC(=O)[C@H](CCC(=O)O)NC(=O)[C@@H](NC(=O)[C@H](CC(=O)O)NC(=O)[C@H](CC(=O)O)NC(=O)[C@@H](N)CC(N)=O)CSSC[C@H](NC(=O)[C@H](C)NC(=O)[C@H](C(C)C)NC(=O)[C@H](CC(N)=O)NC(=O)[C@H](C(C)C)NC2=O)C(=O)N[C@@H]([C@@H](C)O)C(=O)NCC(=O)N1)C(=O)O` (single isomer, unassigned) [huUgnA, Asn Asp Asp Cys Glu Leu Cys Val Asn Val Ala Cys Thr Gly Cys Leu, reference compound]?
A: GFR (glomerular filtration rate) (huUgnA 12 nmol, Infusion): 869 ± 64 μl/min/g KW; GFR (glomerular filtration rate) (huUgnA 12 nmol, Post-infuse): 923 ± 66 μl/min/g KW; GFR (glomerular filtration rate) (huUgnA 12 nmol, Pre-infuse): 895 ± 51 μl/min/g KW; GFR (glomerular filtration rate) (huUgnA 25 nmol, Infusion): 886 ± 66 μl/min/g KW; GFR (glomerular filtration rate) (huUgnA 25 nmol, Post-infuse): 823 ± 49 μl/min/g KW; GFR (glomerular filtration rate) (huUgnA 25 nmol, Pre-infuse): 820 ± 40 μl/min/g KW; GFR (glomerular filtration rate) (huUgnA 50 nmol, Infusion): 817 ± 53 μl/min/g KW; GFR (glomerular filtration rate) (huUgnA 50 nmol, Post-infuse): 869 ± 49 μl/min/g KW; GFR (glomerular filtration rate) (huUgnA 50 nmol, Pre-infuse): 858 ± 52 μl/min/g KW; GFR (glomerular filtration rate) (huUgnA 100 nmol, Infusion): 858 ± 55 μl/min/g KW; GFR (glomerular filtration rate) (huUgnA 100 nmol, Post-infuse): 906 ± 38 μl/min/g KW; GFR (glomerular filtration rate) (huUgnA 100 nmol, Pre-infuse): 807 ± 62 μl/min/g KW; GFR (glomerular filtration rate) (huUgnA 200 nmol, Infusion): 827 ± 61 μl/min/g KW; GFR (glomerular filtration rate) (huUgnA 200 nmol, Post-infuse): 849 ± 24 μl/min/g KW; GFR (glomerular filtration rate) (huUgnA 200 nmol, Pre-infuse): 857 ± 43 μl/min/g KW
